Laboratory results published in patent US4906623A, “3-Imidazolium cephalosporin derivatives” (Otsuka Kagaku Kabushiki Kaisha, priority 1985, dated 1990).
In brackets after ≈: the same amount, converted by molar mass. Where two headings read alike, the source gives them in different places.

Tests used:
Test in all cases: in vitro anti-bacterial activity, two-fold agar plate dilution method
Assay type in all cases: cell-based
[1] = tested on: Escherichia coli CSH(RE45); details: 37° C., 20 hours
Description: (§1) The agent for preventing and treating bacterial infections was tested for in vitro anti-bacterial activity by the following two-fold agar plate dilution method. Each test strain was incubated for 20 hours in a bouillon for measuring sensitivity to obtain a test culture (containing about […]). Portions of sensitivity measuring agar medium containing varying concentrations of the antibacterial agent were each innoculated with a 0.005 ml portion of the culture, followed by incubation at 37° C. for 20 hours. The minimum growth inhibitory concentration (MIC) in μg/ml was then determined.
(§2) MIC=minimum inhibitory concentration

[2] = tested on: Escherichia coli NIHJ-JC2
Description: as §1, §2

Klebsiella pneumoniae = tested on: Klebsiella pneumoniae
Description: as §1, §2

Proteus mirabilis = tested on: Proteus mirabilis
Description: as §1, §2

Proteus vulgaris = tested on: Proteus vulgaris
Description: as §1, §2

Pseudomonas aeruginosa = tested on: Pseudomonas aeruginosa
Description: as §1, §2

Pseudomonas cepacia = details: 37° C., 20 hours
Description: as §1, §2

Serratia marcescens = tested on: Serratia marcescens
Description: as §1, §2

[3] = tested on: Staphylococcus aureus 209P; details: Staphylococcus aureus 209P, agar dilution, 37° C., 20 hours
Description: as §1, §2

[4] = Escherichia coli NIHJ-JC2, agar dilution, 37° C., 20 hours
[5] = agar dilution, 37° C., 20 hours
[6] = NIHJJC2, Escherichia coli NIHJ-JC2, agar dilution, 37° C., 20 hours, read-out: MIC
[7] = agar dilution, 37° C., 20 hours, read-out: MIC
[8] = Burkholderia cepacia, read-out: MIC

Row | Compound | MIC ([1]; read-out: MIC) [µg/mL] | MIC [2, 6] [µg/mL] | MIC (Proteus mirabilis; [7]) [µg/mL] | MIC (Proteus vulgaris; [7]) [µg/mL] | MIC (Pseudomonas aeruginosa; [7]) [µg/mL] | MIC (Pseudomonas cepacia; [8]) [µg/mL] | MIC (Serratia marcescens; [7]) [µg/mL] | MIC ([3]; read-out: MIC) [µg/mL] | MIC (Klebsiella pneumoniae; 20 h) [µg/mL] | MIC (Proteus mirabilis; 20 h) [µg/mL] | MIC (Proteus vulgaris; 20 h) [µg/mL] | MIC (Serratia marcescens; 20 h) [µg/mL] | also measured
1 | 7-{2-(2-aminothiazole-4-yl)-2-[potassium(2,2-dimethylacetate)oxyimino]acetamide}-3-(3-acetophenyl-1-imidazoliomethyl)-3-cephem-4-carboxylate | – | – | – | – | – | – | – | – | – | – | – | – | MIC [1]: 0.2 µg/mL; MIC [2, 4]: 0.39 µg/mL; MIC (Klebsiella pneumoniae; [5]): 1.56 µg/mL; MIC (Proteus mirabilis; [5]): 0.2 µg/mL; MIC (Proteus vulgaris; [5]): 0.2 µg/mL; MIC (Pseudomonas aeruginosa; [5]): 12.5 µg/mL; MIC (Pseudomonas cepacia): 25 µg/mL; MIC (Serratia marcescens; [5]): 1.56 µg/mL; MIC [3]: 6.25 µg/mL
2 | C=CCON=C(C(=O)NC1C(=O)N2C(C(=O)[O-])=C(Cn3cc[n+](CC(=O)c4ccccc4)c3)CSC12)c1csc(N)n1 (stereo not drawn) [B, 7-[2-(2-aminothiazole-4-yl)-2-(2-propenyloxyimino)acetamide]-3-(3-acetophenyl-1-imidazoliomethyl)-3-cephem-4-carboxylate] | – | – | – | – | – | – | – | – | – | – | – | – | MIC [1]: 0.10 µg/mL (≈ 0.165 µM); MIC [2, 4]: 0.39 µg/mL (≈ 0.642 µM); MIC (Klebsiella pneumoniae; [5]): 0.39 µg/mL (≈ 0.642 µM); MIC (Proteus mirabilis; [5]): 0.78 µg/mL (≈ 1.28 µM); MIC (Proteus vulgaris; [5]): 0.78 µg/mL (≈ 1.28 µM); MIC (Pseudomonas aeruginosa; [5]): 6.25 µg/mL (≈ 10.3 µM); MIC (Pseudomonas cepacia): 1.56 µg/mL (≈ 2.57 µM); MIC (Serratia marcescens; [5]): 1.56 µg/mL (≈ 2.57 µM); MIC [3]: 0.20 µg/mL (≈ 0.329 µM)
3 | C=CCO/N=C(\C(=O)NC1C(=O)N2C(C(=O)[O-])=C(C[n+]3ccn(-c4ccc(O)cc4)c3)CSC12)c1csc(N)n1 (stereo not drawn) [C, 7-[2-(2-aminothiazole-4-yl)-2-(2-propenyloxyimino)acetamide]-3-[3-(4-hydroxyphenyl)-1-imidazoliomethyl]-3-cephem-4-carboxylate] | 0.2 (≈ 0.344 µM) | 0.39 (≈ 0.671 µM) | 0.78 (≈ 1.34 µM) | 0.78 (≈ 1.34 µM) | 12.5 (≈ 21.5 µM) | 6.25 (≈ 10.7 µM) | 3.12 (≈ 5.36 µM) | 0.39 (≈ 0.671 µM) | – | – | – | – | MIC (Klebsiella pneumoniae; [7]): 0.78 µg/mL (≈ 1.34 µM)
4 | C=CCO/N=C(\C(=O)NC1C(=O)N2C(C(=O)[O-])=C(C[n+]3ccn(CC=C)c3)CSC12)c1csc(N)n1 (stereo not drawn) [Compound A, 7-[2-(2-aminothiazole-4-yl)-2-(2-propenyloxyimino)acetamide]-3-[3-(2-propenyl)-1-imidazoliomethyl]-3-cephem-4-carboxylate] | 0.39 (≈ 0.736 µM) | 0.78 (≈ 1.47 µM) | – | – | 6.25 (≈ 11.8 µM) | 6.25 (≈ 11.8 µM) | – | 0.78 (≈ 1.47 µM) | 1.56 (≈ 2.95 µM) | 3.13 (≈ 5.91 µM) | 1.56 (≈ 2.95 µM) | 0.78 (≈ 1.47 µM) | –
5 | C#CCn1cc[n+](CC2=C(C(=O)[O-])N3C(=O)C(NC(=O)/C(=N\OC)c4csc(N)n4)C3SC2)c1 (stereo not drawn) [Compound G, 7-[2-(2-aminothiazole-4-yl)-2-methoxyiminoacetamide]-3-[3-(2-propynyl)-1-imidazoliomethyl]-3-cephem-4-carboxylate] | 0.2 (≈ 0.399 µM) | 0.05 (≈ 0.0997 µM) | – | – | 6.25 (≈ 12.5 µM) | 25 (≈ 49.8 µM) | – | 0.78 (≈ 1.56 µM) | 0.1 (≈ 0.199 µM) | 0.2 (≈ 0.399 µM) | 0.2 (≈ 0.399 µM) | 1.56 (≈ 3.11 µM) | –
6 | C=Cn1cc[n+](CC2=C(C(=O)[O-])N3C(=O)C(NC(=O)/C(=N\OC(C)(C)C(=O)O)c4csc(N)n4)C3SC2)c1 (stereo not drawn) [Compound M, 7-{2-(2-aminothiazole-4-yl)-2-[potassium(2,2-dimethylacetate)oxyimino]acetamide}-3-(3-vinyl-1-imidazoliomethyl)-3-cephem-4-carboxylate] | 0.1 | 0.2 | – | – | – | 12.5 | – | 6.25 | 0.39 | 0.1 | 0.1 | 0.78 | MIC (Pseudomonas aeruginosa; 20 h): 3.13 µg/mL
7 | C=CCCn1c[n+](CC2=C(C(=O)[O-])N3C(=O)C(NC(=O)/C(=N\OC(C)(C)C(=O)O)c4csc(N)n4)C3SC2)c2ccccc21 (stereo not drawn) [Compound S, 7-{2-(2-aminothiazole-4-yl)-2-[potassium(2,2-dimethylacetate)oxyimino]acetamide}-3-[benz-3-N-(3-butenyl)-1-imidazoliomethyl]-3-cephem-4-carboxylate] | 0.39 | 0.78 | – | – | 6.25 | 25 | – | 0.78 | 3.13 | 3.13 | 0.78 | 3.13 | –
8 | C#CCn1cc[n+](CC2=C(C(=O)[O-])N3C(=O)C(NC(=O)/C(=N\OCC=C)c4csc(N)n4)C3SC2)c1 (stereo not drawn) [D, 7-[2-(2-aminothiazole-4-yl)-2-(2-propenyloxyimino)acetamide]-3-[3-(2-propynyl)-1-imidazoliomethyl]-3-cephem-4-carboxylate] | 0.78 (≈ 1.48 µM) | 0.78 (≈ 1.48 µM) | 1.56 (≈ 2.96 µM) | 1.56 (≈ 2.96 µM) | 12.5 (≈ 23.7 µM) | 12.5 (≈ 23.7 µM) | 3.13 (≈ 5.93 µM) | 0.78 (≈ 1.48 µM) | 0.78 (≈ 1.48 µM) | – | – | – | –
9 | C=CCO/N=C(\C(=O)NC1C(=O)N2C(C(=O)[O-])=C(C[n+]3ccn(C)c3)CSC12)c1csc(N)n1 (stereo not drawn) [E, 7-[2-(2-aminothiazole-4-yl)-2-(2-propenyloxyimino)acetamide]-3-(3-methyl-1-imidazoliomethyl)-3-cephem-4-carboxylate] | 0.05 (≈ 0.0993 µM) | 0.2 (≈ 0.397 µM) | 0.78 (≈ 1.55 µM) | 0.39 (≈ 0.774 µM) | 12.5 (≈ 24.8 µM) | > 50 | 1.56 (≈ 3.1 µM) | 0.78 (≈ 1.55 µM) | – | – | – | – | MIC (Klebsiella pneumoniae; [7]): 0.02 µg/mL (≈ 0.0397 µM)
10 | C=CCn1cc[n+](CC2=C(C(=O)[O-])N3C(=O)C(NC(=O)/C(=N\OC)c4csc(N)n4)C3SC2)c1 (stereo not drawn) [F, 7-[2-(2-aminothiazole-4-yl)-2-methoxyiminoacetamide]-3-[3-(2-propenyl)-1-imidazoliomethyl]-3-cephem-4-carboxylate] | 0.2 (≈ 0.397 µM) | 0.1 (≈ 0.199 µM) | – | – | 25 (≈ 49.6 µM) | 50 (≈ 99.3 µM) | 0.78 (≈ 1.55 µM) | 6.25 (≈ 12.4 µM) | 0.1 (≈ 0.199 µM) | 0.39 (≈ 0.774 µM) | 0.39 (≈ 0.774 µM) | – | –
11 | C=CCn1cc[n+](CC2=C(C(=O)[O-])N3C(=O)C(NC(=O)/C(=N\OC(C)(C)C(=O)O)c4csc(N)n4)C3SC2)c1 (stereo not drawn) [H, 7-{2-(2-aminothiazole-4-yl)-2-[potassium(2,2-dimethylacetate)oxyimino]acetamide}-3-[3-(2-propenyl)-1-imidazoliomethyl]-3-cephem-4-carboxylate] | 0.1 | 0.2 | 0.2 | 0.1 | 3.12 | 6.25 | 0.78 | 5 | – | – | – | – | MIC (Klebsiella pneumoniae; [7]): 0.78 µg/mL
12 | CCCCCCn1cc[n+](CC2=C(C(=O)[O-])N3C(=O)C(NC(=O)/C(=N\OC(C)(C)C(=O)O)c4csc(N)n4)C3SC2)c1 (stereo not drawn) [J, 7-{2-(2-aminothiazole-4-yl)-2-[potassium(2,2-dimethylacetate)oxyimino]acetamide}-3-(3-n-hexyl-1-imidazoliomethyl)-3-cephem-4-carboxylate] | 0.2 | 0.78 | – | 0.2 | 3.12 | 6.25 | 0.78 | 6.25 | 1.56 | 0.39 | – | – | –
13 | C#CCn1cc[n+](CC2=C(C(=O)[O-])N3C(=O)C(NC(=O)/C(=N\OC(C)(C)C(=O)O)c4csc(N)n4)C3SC2)c1 (stereo not drawn) [K, 7-{2-(2-aminothiazole-4-yl)-2-[potassium(2,2-dimethylacetate)oxyimino]acetamide}-3-[3-(2-propynyl)-1-imidazoliomethyl]-3-cephem-4-carboxylate] | 0.39 | – | 0.39 | 0.39 | – | 0.39 | – | 12.5 | 0.78 | – | – | 0.78 | MIC ([2]; Escherichia coli, NIHJJC2, 20 h): 0.2 µg/mL; MIC (Pseudomonas aeruginosa; 20 h): 3.13 µg/mL
